# Legend:
# beta-catenin = assay: Nuclear beta-catenin assay in rat neonatal cardiomyocytes; format: cell-based; details: recombinant mouse Wnt protein 25 ng/ml-100 ng/ml, 16 hours; FIG. 23
# Description: We have used a nuclear beta-catenin assay to readily identify Wnt-related polypeptides that promote Wnt signaling via the canonical Wnt signaling pathway in cardiac cells. Specifically, and by way of example, we conducted a nuclear beta-catenin assay in rat neonatal cardiomyocytes to identify Wnt-related polypeptides that promote Wnt signaling via the canonical Wnt signaling pathway in cardiomyocytes. Such an assay conducted in neonatal or adult cardiac cells including, but not limited to, cardiomyocytes can be used to identify candidate agents that are capable of promoting Wnt signaling via the canonical Wnt signaling pathway in cardiac cells.
# Briefly, neonatal cardiomyocytes were prepared and plated as outlined in detail above. Cells were washed two times with serum-free medium and were incubated in medium containing either a recombinant Wnt-related polypeptide, or some control factor. Cells were incubated for 16 hours, were fixed in 4% Formaldehye for 10 minuntes at room temperature, and were permeabilized with 0.2% Triton X-100 for 5 minutes. […] Although beta-catenin is not typically detectable by immunocytochemistry in the absence of active Wnt signaling, the nuclei were counterstained with 4′,6-diamidino-2-phenylindole (DAPI) to specifically confirm that the detected beta-catenin expression was localized to the nucleus. […]
# Neonatal cardiomyocytes were cultured under one of the following conditions: medium alone (negative control), 10 mM LiCl, 2% fetal calf serum (FCS), 10% fetal calf serum (FCS), 25 ng/ml recombinant mouse Wnt5A (Catalog# 645-WN/CF), 50 ng/ml recombinant mouse Wnt5A (Catalog# 645-WN/CF), 100 ng/ml recombinant mouse Wnt5A (Catalog# 645-WN/CF), 25 ng/ml recombinant mouse Wnt3A (Catalog # 1324-WN/CF), 50 ng/ml recombinant mouse Wnt3A (Catalog # 1324-WN/CF), or 100 ng/ml recombinant mouse Wnt3A (Catalog # 1324-WN/CF). Following culture under one of the foregoing conditions, cells were analyzed by immunocytochemistry for expression of beta-catenin protein, and nuclear localization was verified by counterstaining the cells with DAPI. […]
# [1] = tested on: unfractionated adult cardiac cells; assay: Viable cell count, unfractionated adult cardiac cells; format: cell-based, mouse; details: unfractionated (whole heart) preparations, 3-4 days culture; recombinant Wnt3A at 50 ng/ml; FIGS. 24, 25a
# Procedure: (§1) Whole hearts were obtained from adult mice (greater than 5 weeks of age). Cardiac tissue was minced and washed three times to remove blood. Cardiac cells were dissociated with pancreatin and collagenase for 15 minutes at 37° C. and washed. Following dissociation the unfractionated cells were either plated, or fractionated into a Sca1+ and Sca1− population prior to plating. These three cardiac cell populations (unfractionated cell preparation; Sca1+cell preparation; Sca1− cell preparation) were cultured in the presence of various Wnt-related compositions. Specifically, the cardiac cell preparations were cultured for 3-4 days in either L-cell conditioned medium alone; LWW60 conditioned medium; or culture medium containing purified Wnt3A protein. Following 3-4 days in culture, the cardiac cells were washed with PBS and trypsinized, and viable cells were counted.
# β-catenin = β-catenin stabilization by immunocytochemistry in neonatal rat cardiomyocytes; format: cell-based; details: 48 hours in neonatal base medium; recombinant Wnt3A 167 ng/ml or 500 ng/ml, or serum; FIG. 19
# Procedure: Briefly, neonatal rat cardiomyocytes were treated with either serum or with recombinant Wnt3A (e.g., 167 ng/ml or 500 ng/ml) in neonatal base medium for 48 hours. The treated cells were fixed, permeablilized with 0.5% Triton-X-100 for 15 minutes, and blocked in 5% goat serum in PBS-T for one hour. Mouse anti-β-catenin antibody (BD-Pharmingen) diluted 1:250 were incubated on cells for one hour. Cells were washed 3 times in PBS-T and incubated one hour in Alexa 594 goat anti-mouse antibody (Molecular Probes) at a dilution of 1:200.
# Sca1+ cell preparation = assay: Viable cell count, Sca1+ adult cardiac cell preparation; format: cell-based, mouse; details: Sca1+ cell preparations, 3-4 days culture; recombinant Wnt3A at 50 ng/ml; FIG. 25a
# Procedure: as §1
# [2] = tested on: one or more non-cardiac cells types; details: cited from earlier work
# [3] = tested on: neonatal rat cardiomyocytes; assay: Neonatal rat cardiomyocyte proliferation, DNA synthesis by BrdU incorporation; format: cell-based
# Procedure: Neonatal rat cardiomyocytes were isolated from postnatal day 2 Wistar rat pups. Rat pups were anesthetized by hypothermia in ice water for 10 min and euthanized by decapitation. Hearts were isolated and placed in PBS-G (KCl 2 g/L; KH2PO4 2 g/L; NaCl 80 g/L; Na2HPO4.7H20 21.6 g/L; D-glucose 10 g/L) on ice. The atria were removed and ventricles were washed in PBS-G and cut into pieces smaller than 2 millimeters. PBS-G containing 119.6 units/ml collagenase type 2 and 0.2 mg/ml pancreatin was warmed to 37° C. Amounts of collagenase were adjusted for batch variations in units/mg activity. Ventricles were dissociated in collagenase/pancreatin solution for 15 minutes on a rotator at 37° C. Tissue was dispersed gently by pipetting and allowed to settle for 5 min at room temperature. Cell suspension from first dissociation was discarded and replaced with fresh collagenase/pancreatin solution, and incubated at 37° C. for 15 minutes on an orbital shaker. Tissue was again dispersed and allowed to settle. The cell supension was transferred to a new tube and incubated an additional 5 min at 37° C., and the digestion was stopped by addition of an equal volume of DMEM/20% NCS and stored on ice. Digestion of the ventricular tissue was repeated 3 additional times and supernatants were collected and stored on ice in equal volumes of DMEM/20% NCS.
# Cells from all the fractions were collected at 200 RCF for 6 min at room temperature. Cell pellets were resuspended in 2 ml ADS buffer (6.8 g/L NaCl, 0.4 g/L KCl, 1.0 g/L D-glucose, 1.5 g/L NaH2PO4, 4.75 g/L HEPES, 0.1 MgSO4.7H2O). One ml of cell suspension was applied to two Percoll gradients set up in the following manner. The top Percoll gradient (density 1.059 g/ml) was generated by mixing Percoll stock with ADS buffer in a 9:11 ratio, and the bottom Percoll gradient (density 1.082 g/ml) was made by mixing Percoll stock and ADS buffer in a 13:7 ratio. Four ml Top Percoll was added to a 15 ml conical tube, and three ml Bottom Percoll was laid below it by placing a pipet tip at the bottom of the tube, then carefully withdrawing it as the solution was delivered. The gradients were centrifuged at 3000 rpm for 30 consecutive minutes at room temperature. Cardiac non-myocytes were located above the top percoll buffer while cardiac myocytes were located at the interface of the top and bottom percoll layers. Blood and undissociated tissue were found at the bottom of the tube. Cardiac myocytes were collected after the top percoll was aspirated, and resuspended in DMEM/10% FBS, then centrifuged at 200 RCF for 6 min. Pelleted myocytes were resuspended in plating medium containing DMEM with 25 mM HEPES, 5% horse serum, 4 mM glutamine, penicillin and streptomycin. Four volumes of DMEM/10% FBS were added and the cell suspension was passed through a 40 uM cell strainer. Cells were pre-plated in 10 cm tissue culture plates for 1 hour at 37° C. Unattached cells were collected from the medium and centrifuged at 200 RCF for 6 min. Pelleted myocytes were resuspended in plating medium containing 10 uM AraC at a density of 100000 cells/ml and 200 ul/well were distributed into 96 well plates which had previously been coated with 0.1% gelatin/12.5 ug/ml fibronectin at 37° C. for more than 4 hours. Plated cells were grown for at least 48 hours at 37° C. prior to use in further experiments.
# Briefly, the experiments summarized in FIG. 15 and FIG. 16 were conducted as follows. Neonatal rat cardiomyocytes were prepared and cultured as outlined in example 1. […]
# [4] = tested on: Wnt3A induced cardiomyocyte proliferation; assay: Wnt antagonists co-administered with Wnt3A-L-cell supernatant, cardiomyocyte proliferation; format: cell-based, rat; details: 100 ng/ml of the Wnt inhibitor; FIG. 18
# Procedure: To confirm that Wnt3A was responsible for the stimulation of cardiomyocyte proliferation observed in FIG. 17, we co-administered supernatant from Wnt3A expressing mouse L-cells and the Wnt antagonist dkk (recombinant dkk obtained from R&D Systems).
# Nevertheless, the inhibition of Wnt3A induced cardiomyocyte proliferation by dkk supports the conclusion that Wnt3A is the active cardiomyocyte proliferative factor in the conditioned medium.
# The experiments were conducted and analyzed as detailed above in examples 2 and 3.
Molecule,beta-catenin nuclear localization (percentage of cells with nuclear beta-catenin staining) (beta-catenin),number of viable cells [1],"stabilization of β-catenin (increased detection and nuclear localization), Wnt signaling (β-catenin)",number of viable cells (Sca1+ cell preparation),Wnt signaling pathway shown in one or more non-cardiac cell types [2],"cardiomyocyte proliferation level compared with serum ([3]; higher doses of Wnt3A, FIG. 16)","cardiomyocyte proliferation ([3]; recombinant Wnt3A 150, 50 or 17 ng/ml, 48 hours, FIG. 22)","cardiomyocyte proliferation, dilution series ([3]; recombinant Wnt3A dilution series, FIG. 16)","cardiomyocyte proliferation, as measured by incorporation of BrdU ([3]; recombinant mouse Wnt3A 0.06, 0.4, 2.3, 14, 83 and 500 ng/ml, FIG. 15)",abolition of Wnt3A induced cardiomyocyte proliferation [4]
Wnt3A,promoted beta-catenin nuclear localization,also increased the number of viable cells,resulted in stabilization of β-catenin,also increased the number of viable cells,signal via the canonical pathway,comparable to serum,promoted cardiomyocyte proliferation,promoted cardiomyocyte proliferation in a dose dependent manner,"statistically significant, dose dependent increase in cardiomyocyte proliferation",
"FRP3: Wnt inhibitor, secreted frizzled-related protein class (protein, UniProt Q92765 33-325, looked up) Secreted frizzled-related …: AACEPVRIPLCKSLPWNMTKMPNHLHHSTQANAILAIEQFEGLLGTHCSPDLLFFLCAMYAPICTIDFQHEPIKPCKSVCERARQGCEPILIKYRHSWPENLACEELPVYDRGVCISPEAIVTADGADFPMDSSNGNCRGASSERCKCKPIRATQKTYFRNNYNYVIRAKVKEIKTKCHDVTAVVEVKEILKSSLVNIPRDTVNLYTSSGCLCPPLNVNEEYIIMGYEDEERSRLLLVEGSIAEKWKDRLGKKVKRWDMKLRHLGLSKSDSSNSDSTQSQKSGRNSNPRQARN",,,,,,,,,,did not
